Reference: PubChem BioAssay AID1963961 (Molecular Pharmacology Branch, DTP, NCI, 2024)

Tested on: K98450-129-R-PDC multicell spheroids, viability
Assay: Anticancer human tumor K98450-129-R-PDC patient-derived colon adenocarcinoma cell line growth inhibition [PI3K]
Conditions: for IC50: curve of first compound; for viability, T/C: stronger effect = lower value
Outline: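 High-throughput combination screen: PI3K inhibitors crossed with targeted small molecules on complex spheroids of tumor cells, HUVEC and MSCs at 37 degrees C, 5% CO2. Top concentration was at or near clinical Cmax (otherwise 10 microM), with half-log decrements.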

[1] = second compound 0.0316 µM, first compound 0.0316 µM
[2] = second compound 0.0316 µM, first compound 0.1 µM
[3] = second compound 0.0316 µM, first compound 0.316 µM
[4] = second compound 0.0316 µM, first compound 1 µM
[5] = second compound 0.0316 µM, first compound 3.16 µM
[6] = second compound 0.0316 µM, first compound 10 µM
[7] = second compound 0.1 µM, first compound 0.0316 µM
[8] = second compound 0.1 µM, first compound 0.1 µM
[9] = second compound 0.1 µM, first compound 0.316 µM
[10] = second compound 0.1 µM, first compound 1 µM
[11] = second compound 0.1 µM, first compound 3.16 µM
[12] = second compound 0.1 µM, first compound 10 µM
[13] = second compound 0.316 µM, first compound 0.0316 µM
[14] = second compound 0.316 µM, first compound 0.1 µM
[15] = second compound 0.316 µM, first compound 0.316 µM
[16] = second compound 0.316 µM, first compound 1 µM
[17] = second compound 0.316 µM, first compound 3.16 µM
[18] = second compound 0.316 µM, first compound 10 µM
[19] = second compound 1 µM, first compound 0.0316 µM
[20] = second compound 1 µM, first compound 0.1 µM
[21] = second compound 1 µM, first compound 0.316 µM
[22] = second compound 1 µM, first compound 1 µM
[23] = second compound 1 µM, first compound 3.16 µM
[24] = second compound 1 µM, first compound 10 µM
[25] = second compound 3.16 µM, first compound 0.0316 µM
[26] = second compound 3.16 µM, first compound 0.1 µM
[27] = second compound 3.16 µM, first compound 0.316 µM
[28] = second compound 3.16 µM, first compound 1 µM
[29] = second compound 3.16 µM, first compound 3.16 µM
[30] = second compound 3.16 µM, first compound 10 µM
[31] = second compound 10 µM, first compound 0.0316 µM
[32] = second compound 10 µM, first compound 0.1 µM
[33] = second compound 10 µM, first compound 0.316 µM
[34] = second compound 10 µM, first compound 1 µM
[35] = second compound 10 µM, first compound 3.16 µM
[36] = second compound 10 µM, first compound 10 µM
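Also: spheroids exposed to agents for seven days before read-out.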

`C#Cc1c(F)ccc2cc(O)cc(-c3ncc4c(N5CC6CCC(C5)N6)nc(OCC56CCCN5CC(F)C6)nc4c3F)c12` (stereo unspecified) + CC(Nc1ncnc2nc[nH]c12)c1cc2cccc(Cl)c2c(=O)n1-c1ccccc1 was tested. Which IC50 (second compound 0.0316 µM) did it give?
The IC50 was greater than 10 µM.

What about the IC50 (second compound 0.1 µM) of the same compound?
Its IC50 is greater than 10 µM.

What about the IC50 (second compound 0.316 µM) of the same compound?
The IC50 was greater than 10 µM.

What about the IC50 (second compound 1 µM) of the same compound?
Its IC50 is greater than 10 µM.

What about the IC50 (second compound 3.16 µM) of the same compound?
Its IC50 is greater than 10 µM.

What about the IC50 (second compound 10 µM) of the same compound?
The IC50 was greater than 10 µM.

What about the viability, T/C [1] of the same compound?
Its viability, T/C is 120%.

And the viability, T/C [2]?
Its viability, T/C is 101%.

And the viability, T/C [3]?
Its viability, T/C is 99.1%.

What about the viability, T/C [4] of the same compound?
The viability, T/C was 91.7%.

What about the viability, T/C [5] of the same compound?
Its viability, T/C is 90.9%.

What about the viability, T/C [6] of the same compound?
Its viability, T/C is 92.9%.

And the viability, T/C [7]?
The viability, T/C was 116%.

And the viability, T/C [8]?
Its viability, T/C is 98.7%.

And the viability, T/C [9]?
The viability, T/C was 96.4%.

What about the viability, T/C [10] of the same compound?
The viability, T/C was 90.1%.

And the viability, T/C [11]?
The viability, T/C was 98.2%.

And the viability, T/C [12]?
Its viability, T/C is 90.6%.

What about the viability, T/C [13] of the same compound?
The viability, T/C was 110%.

And the viability, T/C [14]?
Its viability, T/C is 106%.

And the viability, T/C [15]?
The viability, T/C was 91.1%.

What about the viability, T/C [16] of the same compound?
The viability, T/C was 100%.

And the viability, T/C [17]?
Its viability, T/C is 101%.

And the viability, T/C [18]?
The viability, T/C was 96.2%.

And the viability, T/C [19]?
Its viability, T/C is 98.9%.

And the viability, T/C [20]?
Its viability, T/C is 91.6%.

What about the viability, T/C [21] of the same compound?
Its viability, T/C is 104%.

What about the viability, T/C [22] of the same compound?
Its viability, T/C is 84.1%.

And the viability, T/C [23]?
Its viability, T/C is 115%.

And the viability, T/C [24]?
The viability, T/C was 77.5%.

And the viability, T/C [25]?
The viability, T/C was 89.4%.

What about the viability, T/C [26] of the same compound?
Its viability, T/C is 89.9%.

What about the viability, T/C [27] of the same compound?
The viability, T/C was 93.5%.

And the viability, T/C [28]?
The viability, T/C was 85.1%.

What about the viability, T/C [29] of the same compound?
The viability, T/C was 92%.

And the viability, T/C [30]?
The viability, T/C was 87.4%.

What about the viability, T/C [31] of the same compound?
The viability, T/C was 87.5%.

And the viability, T/C [32]?
Its viability, T/C is 98.2%.

And the viability, T/C [33]?
The viability, T/C was 88.2%.

What about the viability, T/C [34] of the same compound?
The viability, T/C was 91.3%.

And the viability, T/C [35]?
The viability, T/C was 99.9%.

What about the viability, T/C [36] of the same compound?
The viability, T/C was 75.1%.

How did the IC50 (second compound 0.0316 µM) turn out when `C=CC(=O)N1CCN(c2nc(=O)n(-c3c(C)ccnc3C(C)C)c3nc(-c4c(O)cccc4F)c(F)cc23)C(C)C1` (stereo unspecified) + CC(Nc1ncnc2nc[nH]c12)c1cc2cccc(Cl)c2c(=O)n1-c1ccccc1 was run?
Its IC50 is 5.34 µM.

What about the IC50 (second compound 0.1 µM) of the same compound?
Its IC50 is 3.4 µM.

What about the IC50 (second compound 0.316 µM) of the same compound?
Its IC50 is 5.92 µM.

And the IC50 (second compound 1 µM)?
Its IC50 is 3.54 µM.

What about the IC50 (second compound 3.16 µM) of the same compound?
Its IC50 is 1.84 µM.

What about the IC50 (second compound 10 µM) of the same compound?
Its IC50 is 2.02 µM.

What about the viability, T/C [1] of the same compound?
The viability, T/C was 94.3%.

And the viability, T/C [2]?
The viability, T/C was 96.5%.

What about the viability, T/C [3] of the same compound?
The viability, T/C was 79.7%.

What about the viability, T/C [4] of the same compound?
The viability, T/C was 74.1%.

And the viability, T/C [5]?
The viability, T/C was 53.3%.

And the viability, T/C [6]?
Its viability, T/C is 44.4%.

And the viability, T/C [7]?
Its viability, T/C is 106%.

What about the viability, T/C [8] of the same compound?
The viability, T/C was 99.7%.

And the viability, T/C [9]?
The viability, T/C was 89.2%.

What about the viability, T/C [10] of the same compound?
Its viability, T/C is 67.9%.

And the viability, T/C [11]?
Its viability, T/C is 52.4%.

And the viability, T/C [12]?
Its viability, T/C is 36.5%.

What about the viability, T/C [13] of the same compound?
Its viability, T/C is 111%.

And the viability, T/C [14]?
The viability, T/C was 105%.

And the viability, T/C [15]?
The viability, T/C was 92.1%.

And the viability, T/C [16]?
The viability, T/C was 68.5%.

What about the viability, T/C [17] of the same compound?
Its viability, T/C is 54%.

And the viability, T/C [18]?
The viability, T/C was 46.9%.

And the viability, T/C [19]?
The viability, T/C was 113%.

What about the viability, T/C [20] of the same compound?
The viability, T/C was 104%.

And the viability, T/C [21]?
The viability, T/C was 89.4%.

And the viability, T/C [22]?
The viability, T/C was 73.9%.

And the viability, T/C [23]?
Its viability, T/C is 46.9%.

What about the viability, T/C [24] of the same compound?
Its viability, T/C is 42%.

What about the viability, T/C [25] of the same compound?
Its viability, T/C is 93.5%.

And the viability, T/C [26]?
The viability, T/C was 98.1%.

What about the viability, T/C [27] of the same compound?
Its viability, T/C is 96.9%.

What about the viability, T/C [28] of the same compound?
Its viability, T/C is 60.5%.

What about the viability, T/C [29] of the same compound?
Its viability, T/C is 44.5%.

What about the viability, T/C [30] of the same compound?
The viability, T/C was 36.6%.

And the viability, T/C [31]?
The viability, T/C was 81.2%.

And the viability, T/C [32]?
Its viability, T/C is 78.4%.

What about the viability, T/C [33] of the same compound?
The viability, T/C was 84%.

And the viability, T/C [34]?
The viability, T/C was 67.1%.

And the viability, T/C [35]?
Its viability, T/C is 39.4%.

And the viability, T/C [36]?
The viability, T/C was 32.8%.

What does the source list for `CC(Cn1ccc(-c2ccc(C#N)c(Cl)c2)n1)NC(=O)c1cc(C(C)O)[nH]n1` (stereo unspecified) + CC(Nc1ncnc2nc[nH]c12)c1cc2cccc(Cl)c2c(=O)n1-c1ccccc1?
IC50 (second compound 0.0316 µM): > 10 µM; IC50 (second compound 0.1 µM): > 10 µM; IC50 (second compound 0.316 µM): > 10 µM; IC50 (second compound 1 µM): > 10 µM; IC50 (second compound 3.16 µM): > 10 µM; IC50 (second compound 10 µM): > 10 µM; viability, T/C [1]: 119%; viability, T/C [2]: 101%; viability, T/C [3]: 87.3%; viability, T/C [4]: 92.5%; viability, T/C [5]: 102%; viability, T/C [6]: 101%; viability, T/C [7]: 106%; viability, T/C [8]: 113%; viability, T/C [9]: 107%; viability, T/C [10]: 96.5%; viability, T/C [11]: 98.5%; viability, T/C [12]: 103%; viability, T/C [13]: 99.5%; viability, T/C [14]: 109%; viability, T/C [15]: 92.5%; viability, T/C [16]: 92.3%; viability, T/C [17]: 104%; viability, T/C [18]: 99%; viability, T/C [19]: 94.7%; viability, T/C [20]: 95.2%; viability, T/C [21]: 91.7%; viability, T/C [22]: 99.1%; viability, T/C [23]: 93.4%; viability, T/C [24]: 88%; viability, T/C [25]: 72.7%; viability, T/C [26]: 86.1%; viability, T/C [27]: 86.7%; viability, T/C [28]: 80.3%; viability, T/C [29]: 103%; viability, T/C [30]: 84%; viability, T/C [31]: 84.1%; viability, T/C [32]: 87.4%; viability, T/C [33]: 83%; viability, T/C [34]: 88.7%; viability, T/C [35]: 81.8%; viability, T/C [36]: 84.8%
